Laboratory results published in ChEMBL document CHEMBL1201862, “PubChem BioAssay data set” (2004).
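Tested at 5 concentrations; 48 h exposure; 96-well plates; endpoints linearly interpolated, else capped at highest concentration. At the GI50, growth is halved.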 The source made the active and inactive calls. Rule as the data show it: active = GI50 up to about 1.1 µM and inactive = higher.

Assays:
Experiment in all cases: NCI tumour cell line growth inhibition, 48 h
HT-29 = tested on: HT-29
NCI-H522 = tested on: NCI-H522
SN12C = tested on: SN12C
HL-60 = tested on: HL-60
HCC 2998 = tested on: HCC 2998
BT-549 = tested on: BT-549
SK-OV-3 = tested on: SK-OV-3
NCI-H23 = tested on: NCI-H23
UO-31 = tested on: UO-31
CCRF-CEM = tested on: CCRF-CEM
MCF7 = tested on: MCF7
SF-268 = tested on: SF-268
CAKI-1 = tested on: CAKI-1
MOLT-4 = tested on: MOLT-4
M14 = tested on: M14
NCI-H226 = tested on: NCI-H226
RXF 393 = tested on: RXF 393
SK-MEL-28 = tested on: SK-MEL-28
OVCAR-3 = tested on: OVCAR-3
NCI-H460 = tested on: NCI-H460

SMILES	GI50 (HT-29)	GI50 (NCI-H522)	GI50 (SN12C)	GI50 (HL-60)	GI50 (HCC 2998)	GI50 (BT-549)	GI50 (SK-OV-3)	GI50 (NCI-H23)	GI50 (UO-31)	GI50 (CCRF-CEM)	GI50 (MCF7)	GI50 (SF-268)	GI50 (CAKI-1)	GI50 (MOLT-4)	GI50 (M14)	GI50 (NCI-H226)	GI50 (RXF 393)	GI50 (SK-MEL-28)	GI50 (OVCAR-3)	GI50 (NCI-H460)
Nc1ccc(C2(c3ccc(N)cc3)C3CC4CC(C3)CC2C4)cc1	0.998 µM (active)	15.6 µM (inactive)	18.5 µM (inactive)	19.2 µM (inactive)	20.8 µM (inactive)	11.2 µM (inactive)	13.4 µM (inactive)	12.4 µM (inactive)	18.2 µM (inactive)	3.76 µM (inactive)	19.5 µM (inactive)	1.57 µM (inactive)	15 µM (inactive)	4.95 µM (inactive)	14.9 µM (inactive)	19.9 µM (inactive)	2.74 µM (inactive)	14.9 µM (inactive)	10.9 µM (inactive)	–
Cc1c2cc[n+](C)cc2c(C)c2c1[nH]c1ccc(O)cc12 [ELLIPTINIUM ACETATE]	62.4 µM (inactive)	4.31 µM (inactive)	0.532 µM (active)	19 µM (inactive)	49.4 µM (inactive)	3.71 µM (inactive)	46.5 µM (inactive)	8.91 µM (inactive)	17.7 µM (inactive)	4.82 µM (inactive)	8.75 µM (inactive)	0.369 µM (active)	47.4 µM (inactive)	0.241 µM (active)	1.08 µM (active)	1.12 µM (inactive)	62.5 µM (inactive)	6.87 µM (inactive)	23.9 µM (inactive)	0.228 µM (active)
C#CCn1c(=O)c(C#N)c(O)c2cc3ccccc3nc21	> 100 µM (inactive)	> 100 µM (inactive)	> 100 µM (inactive)	> 100 µM (inactive)	> 100 µM (inactive)	–	> 100 µM (inactive)	> 100 µM (inactive)	> 100 µM (inactive)	> 100 µM (inactive)	> 100 µM (inactive)	> 31.6 µM (inactive)	> 100 µM (inactive)	> 100 µM (inactive)	–	> 84.1 µM (inactive)	> 100 µM (inactive)	> 100 µM (inactive)	> 100 µM (inactive)	> 100 µM (inactive)
Cn1ccc(C(=O)NCCN(CCNC(=O)c2ccn(C)c(=O)c2O)CCNC(=O)c2ccn(C)c(=O)c2O)c(O)c1=O	> 100 µM (inactive)	> 100 µM (inactive)	> 100 µM (inactive)	> 100 µM (inactive)	> 100 µM (inactive)	> 100 µM (inactive)	> 100 µM (inactive)	> 100 µM (inactive)	> 100 µM (inactive)	> 100 µM (inactive)	> 100 µM (inactive)	> 100 µM (inactive)	> 100 µM (inactive)	–	> 100 µM (inactive)	> 100 µM (inactive)	> 100 µM (inactive)	> 100 µM (inactive)	> 100 µM (inactive)	> 100 µM (inactive)
CCN1CCC(O)(/C=C/c2ccccc2C)C(C(=O)/C=C/c2ccccc2C)C1 (centres undefined)	2.63 µM (inactive)	–	2.18 µM (inactive)	2.01 µM (inactive)	1.31 µM (inactive)	2.84 µM (inactive)	6.14 µM (inactive)	1.8 µM (inactive)	1.63 µM (inactive)	1.85 µM (inactive)	3.15 µM (inactive)	3.87 µM (inactive)	1.82 µM (inactive)	2.38 µM (inactive)	2.04 µM (inactive)	3.79 µM (inactive)	1.92 µM (inactive)	2.39 µM (inactive)	2.25 µM (inactive)	1.53 µM (inactive)
OCCOCn1nc(-c2ccccc2)nc1-c1cnccn1	> 100 µM (inactive)	> 100 µM (inactive)	> 100 µM (inactive)	> 100 µM (inactive)	> 100 µM (inactive)	> 100 µM (inactive)	> 100 µM (inactive)	> 100 µM (inactive)	> 100 µM (inactive)	> 100 µM (inactive)	> 100 µM (inactive)	> 100 µM (inactive)	–	> 100 µM (inactive)	> 100 µM (inactive)	–	> 100 µM (inactive)	> 100 µM (inactive)	> 100 µM (inactive)	> 100 µM (inactive)
Nc1ncnc2c1ncn2C=C=CCO	> 100 µM (inactive)	–	> 100 µM (inactive)	–	> 100 µM (inactive)	> 100 µM (inactive)	–	> 100 µM (inactive)	> 100 µM (inactive)	> 100 µM (inactive)	> 100 µM (inactive)	–	> 100 µM (inactive)	> 100 µM (inactive)	> 100 µM (inactive)	> 100 µM (inactive)	> 100 µM (inactive)	> 100 µM (inactive)	> 100 µM (inactive)	> 100 µM (inactive)
O=C(O)C(C(=O)O)P(=S)(S)c1ccccc1 (centres undefined)	> 100 µM (inactive)	> 100 µM (inactive)	> 100 µM (inactive)	> 100 µM (inactive)	> 100 µM (inactive)	> 100 µM (inactive)	> 100 µM (inactive)	> 100 µM (inactive)	> 100 µM (inactive)	> 100 µM (inactive)	> 100 µM (inactive)	> 100 µM (inactive)	> 100 µM (inactive)	> 30.4 µM (inactive)	> 100 µM (inactive)	> 100 µM (inactive)	> 100 µM (inactive)	> 100 µM (inactive)	> 100 µM (inactive)	> 100 µM (inactive)
